In ChEMBL document CHEMBL4387706, “Discovery of Novel Spiroindoline Derivatives as Selective Tankyrase Inhibitors” (J Med Chem, 2019):
Active and inactive are the calls of the source. The calls are words filed in the database; no cut-off is given here.

Tests used:
COLO 320DM = test: Antiproliferative activity against human COLO320DM cells assessed inhibition of cell growth measured after 5 days by MTT assay; format: functional; settings: 120 h
[1] = molecular target: 5-hydroxytryptamine receptor 2B (Homo sapiens) (UniProt P41595); test: Displacement of [3H]LSD from full-length recombinant human 5HT2B receptor expressed in CHOK1 cells at 10 uM measured after 60 mins by scintillation counting method relative to control; format: cell-based
RKO = test: Antiproliferative activity against human RKO cells assessed reduction in cell viability at 0.3 uM measured after 5 days by MTT assay; format: functional, cell-based
[2] = Cmax in ICR mouse at 50 mg/kg, ip; format: ADME, organism-based; design: dose 50 mg/kg, route intraperitoneal; settings: in vivo
[3] = molecular target: 5-hydroxytryptamine receptor 1B (Homo sapiens) (UniProt P28222); test: Displacement of [3H]GR125743 from full-length recombinant human 5HT1B receptor expressed in human Chem1 cells at 10 uM measured after 90 mins by scintillation counting method relative to control; format: cell-based
[4] = Toxicity in mouse xenografted with human COLO320DM cells assessed as body weight loss at 300 mg/kg, ip administered twice daily for 11 days; format: organism-based; settings: in vivo, 264 h
[5] = molecular target: Muscarinic acetylcholine receptor M3 (Homo sapiens) (UniProt P20309); test: Displacement of [3H]N-Methylscopolamine from full-length recombinant human M3 receptor expressed in CHOK1 cells at 10 uM measured after 120 mins by scintillation counting method relative to control; format: cell-based
[6] = molecular target: 5-hydroxytryptamine receptor 2A (Homo sapiens) (UniProt P28223); test: Displacement of [3H]ketanserin from full-length recombinant human 5HT2A receptor expressed in CHOK1 cells at 10 uM measured after 60 mins by scintillation counting method relative to control; format: cell-based
[7] = molecular target: Cav1.2 (voltage-dependent L-type calcium channel subunit alpha-1C) (Rattus norvegicus, UniProt P22002); test: Displacement of [3H]nitrendipine from Cav1.2 in Wistar rat cerebral cortex at 10 uM measured after 90 mins by scintillation counting method relative to control; settings: probe [3H]nitrendipine
[8] = molecular target: Prostaglandin G/H synthase 2 (Homo sapiens) (UniProt P35354); test: Inhibition of human recombinant COX2 expressed in Sf21 cells at 10 uM using arachidonic acid as substrate preincubated for 15 mins followed by substrate addition and measured after 3 mins by ampliflu red dye-based spectrofluorimetric method relative to control
Sequence of Prostaglandin G/H synthase 2 (Homo sapiens) (P35354 whole entry): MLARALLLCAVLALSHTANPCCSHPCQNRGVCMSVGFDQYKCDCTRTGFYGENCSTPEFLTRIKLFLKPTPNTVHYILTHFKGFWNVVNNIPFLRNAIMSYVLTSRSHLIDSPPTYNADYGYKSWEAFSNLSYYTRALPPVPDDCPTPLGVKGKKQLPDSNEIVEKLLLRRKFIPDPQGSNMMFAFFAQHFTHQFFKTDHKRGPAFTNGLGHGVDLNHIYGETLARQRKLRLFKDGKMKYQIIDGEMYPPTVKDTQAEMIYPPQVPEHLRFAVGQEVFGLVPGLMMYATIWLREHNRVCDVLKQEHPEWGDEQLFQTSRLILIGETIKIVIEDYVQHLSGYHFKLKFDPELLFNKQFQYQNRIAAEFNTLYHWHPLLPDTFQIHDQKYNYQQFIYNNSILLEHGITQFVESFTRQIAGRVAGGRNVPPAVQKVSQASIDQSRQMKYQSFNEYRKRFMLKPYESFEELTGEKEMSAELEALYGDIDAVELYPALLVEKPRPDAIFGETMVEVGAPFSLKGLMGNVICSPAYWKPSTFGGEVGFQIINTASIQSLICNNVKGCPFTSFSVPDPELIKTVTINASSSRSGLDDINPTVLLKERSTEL

Sequence of 5-hydroxytryptamine receptor 2B (Homo sapiens) (P41595 whole entry): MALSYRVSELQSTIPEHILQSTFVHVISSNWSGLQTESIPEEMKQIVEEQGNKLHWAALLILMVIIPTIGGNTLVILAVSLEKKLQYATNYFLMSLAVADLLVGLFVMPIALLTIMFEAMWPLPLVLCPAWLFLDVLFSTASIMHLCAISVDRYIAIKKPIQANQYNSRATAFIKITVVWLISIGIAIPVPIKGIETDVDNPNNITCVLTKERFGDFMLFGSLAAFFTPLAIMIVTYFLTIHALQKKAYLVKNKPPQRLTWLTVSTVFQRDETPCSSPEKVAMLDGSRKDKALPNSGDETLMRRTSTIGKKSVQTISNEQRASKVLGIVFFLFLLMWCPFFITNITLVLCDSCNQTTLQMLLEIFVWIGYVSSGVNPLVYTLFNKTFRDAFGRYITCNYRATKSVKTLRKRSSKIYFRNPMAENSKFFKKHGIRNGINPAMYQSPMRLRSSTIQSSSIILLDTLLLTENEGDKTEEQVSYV
Sequence of Cav1.2 (voltage-dependent L-type calcium channel subunit alpha-1C) (P22002 whole entry): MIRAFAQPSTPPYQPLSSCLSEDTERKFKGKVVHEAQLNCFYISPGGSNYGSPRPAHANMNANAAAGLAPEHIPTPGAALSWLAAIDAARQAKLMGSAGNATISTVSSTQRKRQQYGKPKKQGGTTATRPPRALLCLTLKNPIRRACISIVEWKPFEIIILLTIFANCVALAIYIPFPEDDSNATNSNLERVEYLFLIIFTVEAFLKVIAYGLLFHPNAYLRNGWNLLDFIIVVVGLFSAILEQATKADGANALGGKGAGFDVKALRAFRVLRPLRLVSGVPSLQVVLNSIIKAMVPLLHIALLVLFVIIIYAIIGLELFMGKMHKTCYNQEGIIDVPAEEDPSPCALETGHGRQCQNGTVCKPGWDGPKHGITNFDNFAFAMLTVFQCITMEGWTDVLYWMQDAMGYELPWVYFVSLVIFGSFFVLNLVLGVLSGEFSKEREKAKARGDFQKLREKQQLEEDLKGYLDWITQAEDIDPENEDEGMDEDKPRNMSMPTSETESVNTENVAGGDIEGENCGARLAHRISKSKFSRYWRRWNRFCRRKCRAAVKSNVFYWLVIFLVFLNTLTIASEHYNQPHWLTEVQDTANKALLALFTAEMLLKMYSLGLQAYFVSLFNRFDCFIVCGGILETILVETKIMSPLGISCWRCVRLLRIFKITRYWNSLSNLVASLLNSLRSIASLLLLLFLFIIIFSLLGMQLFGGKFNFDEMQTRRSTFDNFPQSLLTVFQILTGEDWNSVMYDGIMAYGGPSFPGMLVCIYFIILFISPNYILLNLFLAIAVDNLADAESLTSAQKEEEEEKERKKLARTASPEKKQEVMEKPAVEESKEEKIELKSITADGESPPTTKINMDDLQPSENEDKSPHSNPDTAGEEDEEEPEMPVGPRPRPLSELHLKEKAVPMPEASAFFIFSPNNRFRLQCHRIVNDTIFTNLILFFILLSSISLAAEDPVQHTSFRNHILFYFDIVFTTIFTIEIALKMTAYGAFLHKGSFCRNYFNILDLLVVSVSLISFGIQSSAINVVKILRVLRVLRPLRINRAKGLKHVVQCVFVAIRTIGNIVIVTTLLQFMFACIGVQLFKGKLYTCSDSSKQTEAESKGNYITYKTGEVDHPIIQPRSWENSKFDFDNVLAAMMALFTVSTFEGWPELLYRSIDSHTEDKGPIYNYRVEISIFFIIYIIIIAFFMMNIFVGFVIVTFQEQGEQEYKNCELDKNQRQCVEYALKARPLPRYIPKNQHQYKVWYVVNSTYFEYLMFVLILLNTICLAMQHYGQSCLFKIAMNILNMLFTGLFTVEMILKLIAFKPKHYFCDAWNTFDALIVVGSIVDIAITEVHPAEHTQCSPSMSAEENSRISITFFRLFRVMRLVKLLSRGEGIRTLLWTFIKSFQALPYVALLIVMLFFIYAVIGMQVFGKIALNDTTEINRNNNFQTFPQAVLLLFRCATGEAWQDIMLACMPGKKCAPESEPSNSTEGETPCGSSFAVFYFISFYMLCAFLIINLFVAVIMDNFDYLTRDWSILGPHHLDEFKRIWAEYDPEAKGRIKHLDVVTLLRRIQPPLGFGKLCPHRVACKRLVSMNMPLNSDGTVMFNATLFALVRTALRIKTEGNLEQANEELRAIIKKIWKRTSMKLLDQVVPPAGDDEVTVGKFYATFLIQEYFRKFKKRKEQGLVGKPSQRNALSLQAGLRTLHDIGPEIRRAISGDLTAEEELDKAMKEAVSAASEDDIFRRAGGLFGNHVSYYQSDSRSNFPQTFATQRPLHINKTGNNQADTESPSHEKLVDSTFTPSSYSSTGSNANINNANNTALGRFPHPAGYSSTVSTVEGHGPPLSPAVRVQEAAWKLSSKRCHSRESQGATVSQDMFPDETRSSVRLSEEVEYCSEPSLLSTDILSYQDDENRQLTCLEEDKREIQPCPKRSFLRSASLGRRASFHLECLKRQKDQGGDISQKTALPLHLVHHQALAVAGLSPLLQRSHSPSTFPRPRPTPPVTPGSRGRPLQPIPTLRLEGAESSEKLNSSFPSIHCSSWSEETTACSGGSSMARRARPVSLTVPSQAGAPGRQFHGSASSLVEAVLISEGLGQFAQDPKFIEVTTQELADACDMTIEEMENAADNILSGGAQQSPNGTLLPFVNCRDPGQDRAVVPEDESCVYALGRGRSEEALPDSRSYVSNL
Sequence of Muscarinic acetylcholine receptor M3 (Homo sapiens) (P20309 whole entry, looked up): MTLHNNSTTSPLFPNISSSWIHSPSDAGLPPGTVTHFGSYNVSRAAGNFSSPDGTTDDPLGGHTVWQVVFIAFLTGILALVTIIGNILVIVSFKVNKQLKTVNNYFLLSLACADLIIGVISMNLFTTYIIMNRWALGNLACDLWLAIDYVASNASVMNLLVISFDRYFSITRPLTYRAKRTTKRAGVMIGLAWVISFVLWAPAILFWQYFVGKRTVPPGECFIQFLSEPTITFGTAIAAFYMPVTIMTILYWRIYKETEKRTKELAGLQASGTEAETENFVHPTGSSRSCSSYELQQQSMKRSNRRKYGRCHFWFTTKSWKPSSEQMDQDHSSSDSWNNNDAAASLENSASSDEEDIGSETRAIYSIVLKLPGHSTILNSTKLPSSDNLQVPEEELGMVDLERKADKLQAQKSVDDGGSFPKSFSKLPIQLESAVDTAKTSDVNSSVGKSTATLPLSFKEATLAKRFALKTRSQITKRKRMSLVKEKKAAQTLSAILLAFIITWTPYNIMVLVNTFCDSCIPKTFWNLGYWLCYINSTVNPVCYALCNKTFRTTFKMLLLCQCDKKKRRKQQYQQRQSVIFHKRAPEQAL
Sequence of 5-hydroxytryptamine receptor 1B (Homo sapiens) (P28222 whole entry): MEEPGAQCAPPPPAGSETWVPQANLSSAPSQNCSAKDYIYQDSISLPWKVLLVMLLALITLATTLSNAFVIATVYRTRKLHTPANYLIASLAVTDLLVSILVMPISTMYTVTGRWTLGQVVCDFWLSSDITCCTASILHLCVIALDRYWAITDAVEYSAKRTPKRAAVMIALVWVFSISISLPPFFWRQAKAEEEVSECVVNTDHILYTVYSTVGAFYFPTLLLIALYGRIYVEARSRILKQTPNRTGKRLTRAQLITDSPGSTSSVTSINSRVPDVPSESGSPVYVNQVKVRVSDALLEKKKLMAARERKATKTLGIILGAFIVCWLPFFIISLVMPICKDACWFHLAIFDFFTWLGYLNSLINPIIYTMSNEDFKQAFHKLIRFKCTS
Sequence of 5-hydroxytryptamine receptor 2A (Homo sapiens) (P28223 whole entry): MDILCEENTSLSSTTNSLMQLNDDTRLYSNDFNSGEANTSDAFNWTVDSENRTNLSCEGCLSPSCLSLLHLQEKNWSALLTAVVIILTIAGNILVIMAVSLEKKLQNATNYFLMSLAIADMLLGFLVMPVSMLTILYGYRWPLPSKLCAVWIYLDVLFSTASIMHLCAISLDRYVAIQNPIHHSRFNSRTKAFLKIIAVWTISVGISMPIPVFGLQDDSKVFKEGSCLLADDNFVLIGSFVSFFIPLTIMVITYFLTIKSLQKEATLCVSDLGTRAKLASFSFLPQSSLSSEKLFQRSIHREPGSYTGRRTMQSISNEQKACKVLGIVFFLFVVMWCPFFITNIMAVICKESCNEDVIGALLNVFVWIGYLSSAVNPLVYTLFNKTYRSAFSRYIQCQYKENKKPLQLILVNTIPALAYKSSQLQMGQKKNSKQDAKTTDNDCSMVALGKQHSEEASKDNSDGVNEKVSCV

GI50 (COLO 320DM) [nM] | Compound | inhibition [1] [%] | Activity (RKO) | Cmax [2] [µM] | inhibition [3] [%] | Activity [4] | inhibition [5] [%] | inhibition [6] [%] | inhibition at 1.5 h, 10 µM [7] [%] | inhibition [8] [%]
1820 | COc1ccccc1N1CCN(c2nc3c(c(=O)[nH]2)CCCC3)CC1 | – | – | – | – | – | – | – | – | –
– | O=c1[nH]c(N2CCC3(CC2)CN(CCO)c2cc(F)cc(F)c23)nc2c1CCCC2 | > 20 | Active | 199 | > 20 | Toxic | > 20 | > 20 | > 20 | > 20
